Test results as given in patent US8853215B2, “Derivatives of N-acyl-N′-phenylpiperazine useful (inter alia) for the prophylaxis or treatment of diabetes” (Takeda Pharmaceutical Company Limited, priority 2009, dated 2014).

Target: human RBP4 (Homo sapiens (Human), UniProt P02753)
Experiment: Binding assay by Retinol-RBP4-TTR ELISA
In short: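 Biotinylated human TTR was captured on streptavidin plates, then His-tagged human RBP4 was added with compound premixed with 50 nM retinol (8 doses). Binding ran 2 h at room temperature in 50 mM Tris-HCl, 150 mM NaCl, 0.005% Tween 20, 1 mM DTT, 0.1% BSA, read by luminescence. Inhibition was scaled between retinol+DMSO and retinol-free controls, and IC50 fitted.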

## CC(C)(C)c1ccccc1N1CCN(C(=O)C(=O)O)CC1 [Example 44, 2-[4-(2-tert-Butylphenyl)piperazin-1-yl]-2-oxoacetic acid]
At 10 μM compound, read-out: human RBP4 binding inhibitory activity(% at 10 μM)
  inhibition at 10 µM: 100%
Retinol 50 nM, His-tagged human RBP4, biotinylated human TTR, read-out: human RBP4 binding inhibitory activity (IC50 nM)
  IC50: 38 nM
